Reference: patent publication EP0147498A2, “Method of testing chemical and biological substances” (Thorn, Werner Prof. Dr., priority 1983, dated 1985)

Columns and labels:
[1] = test system: Magenschleimhaut; test: Plasma polyp (PP) formation at the gastric mucosa after application by stomach tube, PP isolated by reverse centrifugation and counted by phase-contrast microscopy; details: for Anzahl der PP pro 1 g Rattenmagen: stomach tube, about 20-30 min
Text: Die PP-Bildung, deren Konzentration und Auszählung wurden an Gruppen zu je 5 Ratten von 140 bis 160 g Körpergewicht, im Mittel 150 g, kontrolliert und die Anzahl der PP auf 1 g Magen (Leergewicht) umgerechnet. Die Tiere waren vor dem Versuch 15 bis 17 Stunden nahrungsfrei. Die Applikation der Testsubstanzen, die gelöst sind in Krebs-Ringer-Lösung (KRL) oder Aq.bidest, erfolgte per Schlundsonde. Die verabreichte Lösung besitzt einen pH-Wert von 7,0 bis 7,2. Die Verweildauer des applizierten Volumens hängt zum Teil ab von den Eigenschaften der Testsubstanz. […] Die Verweildauer der Testsubstanz bis zur Entnahme der Mägen einer Gruppe betrug etwa 20 bis maximal 30 min. Dabei werden dosisabhängig die abgeschnürten PP erfaßt.
Es wurden 5 Tierversuche - zu einer Serie zusammengefaßt - durchgeführt innerhalb von 40 min, wobei die Mägen wie folgt aufgearbeitet wurden: • 1. Jeder Ratte werden in nicht narkotisiertem Zustand 4,5 ml der Lösung bestehend aus der in KRL oder Aq.bidest gelösten Testsubstanz mittels einer Schlundsonde appliziert. • 2. Nach einer Einwirkzeit von etwa 15 bis 20 min werden 40 bis 45 mg Nembutal intraperitoneal appliziert, 2 bis 3 min zugewartet und dann der Magen während eines Zeitraums von etwa 5 min entnommen. • 3. Der Magen wird aufgeschnitten, der Inhalt aufgefangen, auf PP geprüft und der leere Magen in. oxygenierte KRL-Lösung mit Glucosezusatz geworfen. • 4. Alle 5 Mägen werden in der glucosehaltigen KRL dreimal hochtourig homogenisiert, das Homogenisat über ein feinmaschiges Sieb gegossen, und das Sieb wird mit 20 ml KRL nachgespült, so daß ein Endvolumen von 80 ml vorliegt. • 5. Die Volumina aus den Stufen 3 und 4 werden mit 8 ml eine: 7 %iger Lösung aus einem Copolymeren der Saccharose mit Epichlorhydrin unterschichtet und bei 2000 Umdrehungen/min im Schwingbecherrotor für 20 min zentrifugiert. • 6. Die die PP enthaltende Schicht wird erneut 60 min im Festwinkelrotor bei 13000 Umdrehungen/min (Ultrazentrifuge) zentrifugiert, der Uberstand wird verworfen und das Sediment weiterverarbeitet. • 7 Das Sediment wird einer umgekehrten Zentrifugation in der Ultrazentrifuge bei 25000 U/min für 45 min unterzogen. • 8. Die in einer Bohrung aufgefangenen PP aus der umgekehrten Zentrifugation werden in 50 µl KRL aufgenommen. • 9. Zur Auszählung der PP aus Stufe 8 bei einem Ansatz von jeweils 3 µl dient ein Phasenkontrastmikroskop. Es werden 10 Felder mit dem Rasterobjektiv ausgezählt, zum Teil unter fotografischer Kontrolle. Die in der nachfolgenden Tabelle aufgeführten Werte stammen jeweils aus drei Ansätzen; einer Probe von 5 Rattenmägen oder aus der Auswertung von 30 Feldern. • 10. Mittelwert pro Feld x Umrechnungsfaktor pro Feld x 16,6 ergibt die Zahl der PP pro Gramm Magen. Der Umrechnungsfaktor für die Feldfläche von 18 x 18 mm^2 ist 24,652.
Es wurden die in der folgenden Tabelle angegebenen Substanzen injiziert und dann die Anzahl der PP aus einer Serie von 5 Tieren als Mittelwert pro Gramm Rattenmagen oder gemittelt aus mehreren Serien mit jeweils 5 Tieren ermittelt.

[2] = test system: Syncytiotrophoblasten der Placenta; details: cited from earlier work; for PP-Bildung in Meerschweinchenplacenten: animal experiments, Archiv für Gynäkologie 216 (1974) and 221 (1976); for Auftreten von Plasmapolypen am Syncytiotrophoblasten der Placenta: poisoning of pregnant guinea pigs, within a few minutes, already known

SMILES: CC(=O)C(=O)O [Na-Pyruvat, Natriumpyruvat]
- Anzahl der PP pro 1 g Rattenmagen ([1]; 0,5 mmol Na-Pyruvat in 4,5 ml Aq.bidest, 1 series of 5 rats): etwa 220.000 PP pro 1 g Rattenmagen
- PP-Zahlen gegenüber der Blindprobe (4,5 ml Aq.bidest) ([1]; Na-Pyruvat alone, compared with the blank): keine Erhöhung

SMILES: O=[N+]([O-])c1ccc(O)c([N+](=O)[O-])c1 [2.4-Dinitrophenol]
- PP-Bildung in Meerschweinchenplacenten [2]: keiner vermehrten PP-Bildung

SMILES: O=C(O)CI [Monojodacetat]
- PP-Bildung in Meerschweinchenplacenten [2]: verstärkte, reproduzierbare Bildung und Abschnürung von Zellprotrusionen
- Auftreten von Plasmapolypen am Syncytiotrophoblasten der Placenta [2]: in großer Zahl

SMILES: [F-].[Na+] [Natriumfluorid]
- PP-Bildung in Meerschweinchenplacenten [2]: verstärkte, reproduzierbare Bildung und Abschnürung von Zellprotrusionen
- Auftreten von Plasmapolypen am Syncytiotrophoblasten der Placenta [2]: in großer Zahl

SMILES: CC(O)C(=O)O (centres unmarked) [Na-Lactat]
- Anzahl der PP pro 1 g Rattenmagen ([1]; 2,0 mmol Na-Lactat in 4,5 ml Aq.bidest, mean of 4 series of 5 rats): 344.000 PP pro 1 g Rattenmagen

SMILES: O=C(O)O [NaHCO3]
- Anzahl der PP pro 1 g Rattenmagen ([1]; 1,33 mmol NaHCO3 in 4,5 ml Aq.bidest, mean of 4 series of 5 rats): 333.700 PP pro 1 g Rattenmagen

SMILES: CC(=O)Oc1ccccc1C(=O)O [ASS, Acetylsalicylsäure]
- Anzahl der PP pro 1 g Rattenmagen ([1]; 0,5 mmol ASS in 4,5 ml Aq.bidest, mean of 3 series of 5 rats): 728.000 PP pro 1 g Rattenmagen
- Anzahl der PP pro 1 g Rattenmagen ([1]; 0,25 mmol ASS in 4,5 ml Aq.bidest, mean of 3 series of 5 rats): 610.700 PP pro 1 g Rattenmagen
